From PubChem BioAssay (NCI)
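Values below derive from 48-hour exposures of cells grown in 96-well plates, with endpoints linearly interpolated between the two concentrations bracketing the appropriate inhibition level. TGI: total growth inhibition.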

Assays:
Test in all cases: growth of human tumour cells (NCI), 48 h
[1] = test system: ACHN renal
[2] = test system: OVCAR-5 ovarian
[3] = test system: KM12 colon
[4] = test system: RPMI-8226 leukemia
[5] = test system: SNB-78 CNS
[6] = test system: SNB-19 CNS
[7] = test system: LOX IMVI melanoma
[8] = test system: KM20L2 colon
[9] = test system: OVCAR-3 ovarian
[10] = test system: LXFL 529 NSCLC
[11] = test system: DMS 114 small cell lung
[12] = test system: M14 melanoma
[13] = test system: RXF-631 renal
[14] = test system: NCI-H460 lung
[15] = test system: DLD-1 colon
[16] = test system: COLO 205 colon
[17] = test system: SR leukemia
[18] = test system: OVCAR-4 ovarian
[19] = test system: MALME-3M melanoma
[20] = test system: UACC-257 melanoma
[21] = test system: SK-MEL-5 melanoma
[22] = test system: 786-0 renal
[23] = test system: SK-MEL-28 melanoma
[24] = test system: HL-60(TB) leukemia
[25] = test system: CAKI-1 renal
[26] = test system: SF-295 CNS
[27] = test system: CCRF-CEM leukemia
[28] = test system: NCI-H226 lung
[29] = test system: SF-539 CNS
[30] = test system: NCI-H522 lung
[31] = test system: K-562 leukemia
[32] = test system: HOP-92 NSCLC
[33] = test system: UO-31 renal
[34] = test system: U251 CNS
[35] = test system: HCC-2998 colon
[36] = test system: HT29 colon
[37] = test system: EKVX NSCLC
[38] = test system: SN12C renal
[39] = test system: SK-OV-3 ovarian
[40] = test system: XF 498 CNS
[41] = test system: TK-10 renal
[42] = test system: MOLT-4 leukemia
[43] = test system: NCI-H23 lung
[44] = test system: HOP-62 NSCLC
[45] = test system: HOP-18 NSCLC
[46] = test system: SNB-75 CNS
[47] = test system: HCT-15 colon
[48] = test system: DMS 273 small cell lung
[49] = test system: SW-620 colon
[50] = test system: IGROV1 ovarian
[51] = test system: SK-MEL-2 melanoma
[52] = test system: UACC-62 melanoma
[53] = test system: OVCAR-8 ovarian
[54] = test system: A549 NSCLC
[55] = test system: A498 renal
[56] = test system: SF-268 CNS
[57] = test system: M19-MEL melanoma
[58] = test system: HCT-116 colon
[59] = test system: RXF 393 renal

## COc1ccc2ccc3c(c2c1)CN1CCc2cc(OC)c(OC)cc2C1C3 (stereo unspecified)
[1]
  TGI: > 100 µM
[2]
  TGI: > 100 µM
[3]
  TGI: > 100 µM
[4]
  TGI: > 100 µM
[5]
  TGI: > 100 µM
[6]
  TGI: > 100 µM
[7]
  TGI: > 100 µM
[8]
  TGI: > 100 µM
[9]
  TGI: > 100 µM
[10]
  TGI: > 100 µM
[11]
  TGI: > 100 µM
[12]
  TGI: > 100 µM
[13]
  TGI: > 100 µM
[14]
  TGI: > 100 µM
[15]
  TGI: > 100 µM
[16]
  TGI: > 100 µM
[17]
  TGI: > 100 µM
[18]
  TGI: > 100 µM
[19]
  TGI: > 100 µM
[20]
  TGI: > 100 µM
[21]
  TGI: > 100 µM
[22]
  TGI: > 100 µM
[23]
  TGI: > 100 µM
[24]
  TGI: > 100 µM
[25]
  TGI: > 100 µM
[26]
  TGI: > 100 µM
[27]
  TGI: > 100 µM
[28]
  TGI: > 100 µM
[29]
  TGI: > 100 µM
[30]
  TGI: > 100 µM
[31]
  TGI: > 100 µM
[32]
  TGI: > 100 µM
[33]
  TGI: > 100 µM
[34]
  TGI: > 100 µM
[35]
  TGI: > 100 µM
[36]
  TGI: > 100 µM
[37]
  TGI: > 100 µM
[38]
  TGI: > 100 µM
[39]
  TGI: > 100 µM
[40]
  TGI: > 100 µM
[41]
  TGI: > 100 µM
[42]
  TGI: > 100 µM
[43]
  TGI: > 100 µM
[44]
  TGI: > 100 µM
[45]
  TGI: > 100 µM
[46]
  TGI: 96.8 µM
[47]
  TGI: > 100 µM
[48]
  TGI: > 100 µM
[49]
  TGI: > 100 µM
[50]
  TGI: > 100 µM
[51]
  TGI: > 100 µM
[52]
  TGI: > 100 µM
[53]
  TGI: > 100 µM

## COc1ccc(C2Oc3c(cc(O)c(OC)c3C)[C@@H]2C)cc1OC (stereo partly specified)
[1]
  TGI: > 100 µM
[2]
  TGI: > 100 µM
[54]
  TGI: > 100 µM
[3]
  TGI: > 100 µM
[55]
  TGI: > 100 µM
[4]
  TGI: > 100 µM
[5]
  TGI: > 100 µM
[6]
  TGI: > 100 µM
[7]
  TGI: > 100 µM
[8]
  TGI: > 100 µM
[9]
  TGI: > 100 µM
[10]
  TGI: > 100 µM
[11]
  TGI: > 100 µM
[12]
  TGI: > 100 µM
[13]
  TGI: > 100 µM
[14]
  TGI: > 100 µM
[15]
  TGI: > 100 µM
[16]
  TGI: > 100 µM
[56]
  TGI: > 100 µM
[57]
  TGI: > 100 µM
[18]
  TGI: > 100 µM
[58]
  TGI: > 100 µM
[19]
  TGI: > 100 µM
[20]
  TGI: > 100 µM
[21]
  TGI: > 100 µM
[22]
  TGI: > 100 µM
[23]
  TGI: > 100 µM
[24]
  TGI: > 100 µM
[25]
  TGI: > 100 µM
[26]
  TGI: > 100 µM
[27]
  TGI: > 100 µM
[28]
  TGI: > 100 µM
[29]
  TGI: > 100 µM
[30]
  TGI: > 100 µM
[31]
  TGI: > 100 µM
[32]
  TGI: > 100 µM
[33]
  TGI: > 100 µM
[34]
  TGI: > 100 µM
[35]
  TGI: > 100 µM
[36]
  TGI: > 100 µM
[37]
  TGI: > 100 µM
[39]
  TGI: > 100 µM
[40]
  TGI: > 100 µM
[59]
  TGI: > 100 µM
[41]
  TGI: > 100 µM
[42]
  TGI: > 100 µM
[43]
  TGI: > 100 µM
[44]
  TGI: > 100 µM
[45]
  TGI: > 100 µM
[46]
  TGI: > 100 µM
[48]
  TGI: > 100 µM
[49]
  TGI: > 100 µM
[50]
  TGI: > 100 µM
[51]
  TGI: > 100 µM
[52]
  TGI: > 100 µM
[53]
  TGI: > 100 µM

## COC1C(CN[N+](=O)CC2OC3OC(C)(C)OC3C2OC)OC2OC(C)(C)OC21 (stereo unspecified)
[1]
  TGI: > 100 µM
[2]
  TGI: > 100 µM
[54]
  TGI: > 100 µM
[3]
  TGI: > 100 µM
[55]
  TGI: > 100 µM
[5]
  TGI: > 100 µM
[6]
  TGI: > 100 µM
[7]
  TGI: > 100 µM
[9]
  TGI: > 100 µM
[11]
  TGI: > 100 µM
[12]
  TGI: > 100 µM
[13]
  TGI: > 100 µM
[14]
  TGI: > 100 µM
[15]
  TGI: > 100 µM
[16]
  TGI: > 100 µM
[56]
  TGI: > 100 µM
[57]
  TGI: > 100 µM
[18]
  TGI: > 100 µM
[58]
  TGI: > 100 µM
[19]
  TGI: > 100 µM
[20]
  TGI: > 100 µM
[21]
  TGI: > 100 µM
[22]
  TGI: > 100 µM
[23]
  TGI: > 100 µM
[24]
  TGI: > 100 µM
[25]
  TGI: > 100 µM
[26]
  TGI: > 100 µM
[27]
  TGI: > 100 µM
[28]
  TGI: > 100 µM
[29]
  TGI: > 100 µM
[32]
  TGI: > 100 µM
[33]
  TGI: > 100 µM
[34]
  TGI: > 100 µM
[35]
  TGI: > 100 µM
[36]
  TGI: > 100 µM
[37]
  TGI: > 100 µM
[38]
  TGI: > 100 µM
[39]
  TGI: > 100 µM
[59]
  TGI: > 100 µM
[41]
  TGI: > 100 µM
[42]
  TGI: > 100 µM
[43]
  TGI: > 100 µM
[44]
  TGI: > 100 µM
[45]
  TGI: > 100 µM
[46]
  TGI: > 100 µM
[47]
  TGI: > 100 µM
[48]
  TGI: > 100 µM
[49]
  TGI: > 100 µM
[50]
  TGI: > 100 µM
[51]
  TGI: > 100 µM
[52]
  TGI: > 100 µM
[53]
  TGI: > 100 µM

## c1ccc(C2C3=C(Nc4ncnn42)c2ccccc2C3)cc1 (stereo unspecified)
[1]
  TGI: > 100 µM
[2]
  TGI: > 100 µM
[54]
  TGI: > 100 µM
[3]
  TGI: > 100 µM
[55]
  TGI: > 100 µM
[4]
  TGI: > 100 µM
[5]
  TGI: > 100 µM
[6]
  TGI: > 100 µM
[7]
  TGI: 73.2 µM
[8]
  TGI: 24.5 µM
[9]
  TGI: 30.3 µM
[11]
  TGI: 24.1 µM
[12]
  TGI: > 100 µM
[13]
  TGI: > 100 µM
[14]
  TGI: > 100 µM
[15]
  TGI: 38 µM
[16]
  TGI: 25.8 µM
[56]
  TGI: > 100 µM
[57]
  TGI: > 100 µM
[18]
  TGI: > 100 µM
[58]
  TGI: > 100 µM
[19]
  TGI: > 100 µM
[20]
  TGI: > 100 µM
[21]
  TGI: > 100 µM
[22]
  TGI: 78.2 µM
[24]
  TGI: > 100 µM
[25]
  TGI: > 100 µM
[26]
  TGI: > 100 µM
[27]
  TGI: > 100 µM
[29]
  TGI: 34.2 µM
[30]
  TGI: 26.5 µM
[31]
  TGI: > 100 µM
[32]
  TGI: > 100 µM
[33]
  TGI: > 100 µM
[34]
  TGI: 17.7 µM
[35]
  TGI: > 100 µM
[36]
  TGI: > 100 µM
[37]
  TGI: > 100 µM
[38]
  TGI: > 100 µM
[39]
  TGI: > 100 µM
[40]
  TGI: > 100 µM
[59]
  TGI: > 100 µM
[41]
  TGI: > 100 µM
[42]
  TGI: > 100 µM
[43]
  TGI: 65.1 µM
[44]
  TGI: > 100 µM
[45]
  TGI: > 100 µM
[46]
  TGI: > 100 µM
[47]
  TGI: > 100 µM
[48]
  TGI: > 100 µM
[49]
  TGI: 17.4 µM
[50]
  TGI: > 100 µM
[51]
  TGI: > 100 µM
[52]
  TGI: > 100 µM
[53]
  TGI: > 100 µM
